According to ChEMBL document CHEMBL1811882, “Synthesis and in vitro evaluation of novel pro-drugs for the treatment of nephropathic cystinosis” (Bioorg Med Chem, 2011):
Calls of active or inactive are those of the source. No cut-off for these calls is given here.

Assays:
[1] = Cytotoxicity against cystinotic human fibroblasts at 50 uM after 72 hrs by Alamar blue assay; type: cell-based; settings: fibroblast
Fibroblast = assay: Reduction of intralysosomal cystine in cystinotic human fibroblasts at 50 uM after 24 hrs by Bradford method relative to control; type: functional, cell-based

| Compound | Activity [1] | Activity (Fibroblast) |
| --- | --- | --- |
| Cl.Cl.NCCSSCCNC(=O)CCCC(=O)NCCSSCCNC(=O)CCCC(=O)NCCSSCCN | Non-toxic | Active |
| Cl.Cl.N[C@@H](Cc1ccccc1)C(=O)NCCSSCCNC(=O)CCCC(=O)NCCSSCCNC(=O)CCCC(=O)NCCSSCCNC(=O)[C@@H](N)Cc1ccccc1 | Non-toxic | Active |
| Cl.Cl.N[C@@H](Cc1ccccc1)C(=O)NCCSSCCNC(=O)CCC(=O)NCCSSCCNC(=O)CCC(=O)NCCSSCCNC(=O)[C@@H](N)Cc1ccccc1 | Non-toxic | Active |
| Cl.Cl.NCCSSCCNC(=O)CCC(=O)NCCSSCCNC(=O)CCC(=O)NCCSSCCN | Non-toxic | Active |
| NCCS [CYSTEAMINE] | Non-toxic | Active |
